The values that follow are results of earlier work, collected in patent publication US20250144118A1, “MIFEPRISTONE ORAL FORM FOR ITS USE IN CERVIX RIPENING AND LABOUR INDUCTION” (NORDIC GROUP B.V., priority 2020, published 2025).

Series [1] concerns cervix of pregnant women beyond 41 weeks' gestation. The conditions noted are these: 200 mg mifepristone orally, findings not statistically significant.
The test system of series [2] is cervix of women in term pregnancies. The conditions noted are these: 50, 100, 200, 400 and 600 mg of mifepristone; regardless of the dose.
Series [3] concerns cervix of women in full-term pregnancy. Particulars: clinical trial.

As for `CC#C[C@]1(O)CC[C@H]2[C@@H]3CCC4=CC(=O)CCC4=C3[C@@H](c3ccc(N(C)C)cc3)C[C@@]21C` [mifepristone, Mifepristone], the “Bishop score after 24 hours vs. placebo” value in series [1] was “improve the Bishop score after 24 hours vs. placebo”. Moreover, the use of prostaglandin result in series [1] (vs. placebo) is “reduce the use of prostaglandin”. Moreover, in series [2], the efficiency vs placebo entry is “no more effective than placebo”. Also, the “induction of cervical ripening and labour” value in series [3] was “efficient on inducing cervical ripening and labour”.
